We go through 16 compounds from patent US20260125375A1 (Pfizer Inc., priority 2022, published 2026).

Assay [1] concerns the target T1, CBL-B (residues 36-427) (Homo sapiens, UniProt Q13191).
T1 construct: Purified CBL-B (residues 36-427) and C-CBL (residues 46-435) proteins from baculovirus-infected insect cells; made in house; host or cells: baculovirus-infected insect cells
The experiment in a line: Ligand Displacement Assay (LDA), HTRF competitive binding against BODIPY-labeled fluorescent tracer, CBL-B. The conditions noted are these: geometric mean of the number of tests, read-out: CBL-B Ki (nM) GMean. The source says: (§1) Ligand Displacement Assay (LDA)
(§2) The purpose of the homogeneous time-resolved fluorescence energy transfer (HTRF) ligand displacement assay is to determine whether the compounds of the disclosure are competitive with a BODIPY-labeled compound; “fluorescent tracer” aka [6-cyclopropyl-5-(17-{5-[(3,5-dimethyl-2H-pyrrol-2-ylidene-KN)methyl]-1H-pyrrol-2-yl-κN}-15-oxo-5,8,11-trioxa-2,14-diazaheptadecan-1-yl)-N-(3-{3-[(4-methyl-4H-1,2,4-triazol-3-yl)methyl]oxetan-3-yl}phenyl)pyridine-2-carboxamidato](difluorido)boron and to assess CBL-B binding selectivity over C-CBL. The synthesis of this fluorescent tracer compound is described below.
(§3) Purified CBL-B (residues 36-427) and C-CBL (residues 46-435) proteins from baculovirus-infected insect cells were biotin labeled on their amino-terminal AviTag™ epitopes by the E. coli biotin ligase BirA to bind terbium-labeled streptavidin (SA-Tb). After optimizing the assays and determining KD values for the fluorescent tracer to CBL-B and C-CBL, compounds were tested using three-fold serial dilutions in duplicate from a top concentration of […] with a final DMSO concentration of 2%. […] The Ki (nM) values reported are the geometric means (GMean) of the number of tests conducted.
Background: TR-FRET usually uses a lanthanide donor and a delayed reading to cut background.

Assay [2] has as its target T2, C-CBL (residues 46-435) (Homo sapiens, UniProt P22681).
T2 construct: Purified CBL-B (residues 36-427) and C-CBL (residues 46-435) proteins from baculovirus-infected insect cells; made in house; host or cells: baculovirus-infected insect cells
T2 sequence (P22681 46-435): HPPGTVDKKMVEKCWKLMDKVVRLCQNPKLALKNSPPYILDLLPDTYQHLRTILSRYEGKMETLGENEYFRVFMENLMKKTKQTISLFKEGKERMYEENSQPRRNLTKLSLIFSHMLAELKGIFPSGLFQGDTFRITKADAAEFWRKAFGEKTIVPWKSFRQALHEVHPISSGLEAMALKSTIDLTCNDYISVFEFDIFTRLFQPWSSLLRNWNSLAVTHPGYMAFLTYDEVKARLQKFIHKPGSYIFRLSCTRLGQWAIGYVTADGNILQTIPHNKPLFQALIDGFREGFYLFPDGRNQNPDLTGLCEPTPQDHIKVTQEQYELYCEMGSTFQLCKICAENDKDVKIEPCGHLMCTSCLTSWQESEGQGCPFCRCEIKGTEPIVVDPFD
The experiment in a line: Ligand Displacement Assay (LDA), HTRF competitive binding against BODIPY-labeled fluorescent tracer, C-CBL. The conditions noted are these: geometric mean of the number of tests, read-out: C-CBL Ki (nM) GMean.
Source text: as §1, §2, §3

Assay [3] addresses T3, WT CBL-B (36-427) (Homo sapiens, UniProt Q13191).
T3 construct: N-terminal biotinylated WT CBL-B (36-427) and C-CBL (46-435) were captured on a streptavidin (SA) coated sensor chip
The experiment in a line: Surface Plasmon Resonance (SPR) assay, binding affinity and kinetics, CBL-B. The conditions noted are these: SPR at 10° C., biotinylated WT CBL-B (36-427) on streptavidin chip; geometric mean; read-out: CBL-B SPR Kd (nM) GMean. As for the experimental part:
(§4) Surface Plasmon Resonance (SPR) Assay
(§5) The purpose of the SPR assay is to evaluate the binding affinity and kinetics of the compound of disclosure binding to CBL-B and C-CBL.
(§6) The binding affinity and kinetics of compound binding to CBL-B and C-CBL were measured by Surface Plasmon Resonance (SPR) using either Biacore S200, 8K or 8K+ (Cytiva, Marlborough, MA) instruments. N-terminal biotinylated WT CBL-B (36-427) and C-CBL (46-435) were captured on a streptavidin (SA) coated sensor chip to achieve approximately 5000 to 6000 RUs of surface density. Un-functionalized SA surfaces with no immobilized protein served as reference for binding kinetic analysis. All the samples were prepared in buffer consisting of 10 mM HEPES, 150 mM NaCl, 0.05% Tween-20, 5% glycerol, […], 2% DMSO, pH 7.2. The same buffer was used as the running buffer during the experiments. Compound binding kinetics were measured in either multi-cycle or single-cycle kinetic format.
(§7) Multi-cycle kinetic analysis (MCK): A two-fold, 10-point serial dilution of test compounds was set-up in a 96-well microplate (Greiner; Cat #650101) with a top concentration of either 10 μM or 100 μM. Binding kinetics was measured at 10° C. by injecting serial dilution of compounds onto both reference and CBL immobilized channels at a flow rate of 100 μL/min and association time of 90 seconds. Compound dissociation was monitored for >400 seconds during each cycle. No additional regeneration was used. DMSO calibration curve was obtained before and after compound analysis by injecting 0-4% of DMSO in assay buffer. A suitable compound with known affinity and kinetics was tested once in every experiment as a positive control to assess activity of the captured proteins on the surface.
(§8) Single-cycle kinetic analysis (SCK): A 3-fold, 6-point serial dilution of compounds was set-up in a deep 96-well microplate (Greiner Bio; Cat #780201) with the highest concentration of 1 μM (concentration range: […]). Binding kinetics was measured at 10° C. by injecting serial dilutions of compounds in increasing order onto reference as well as CBL immobilized channels at a flow rate of 100 μL/min and association time of 120 seconds. Compound dissociation was monitored for >5400 seconds. Two buffer blanks were also run in a single-cycle kinetics format before the compound run for double referencing. No additional regeneration was used. DMSO calibration curve was obtained before and after compound analysis by injecting 0-4% of DMSO in the assay buffer. A suitable compound with known affinity and kinetics was tested once in every experiment as a positive control to assess activity of the captured proteins on the surface.

Assay [4] has as its target T4, C-CBL (46-435) (Homo sapiens, UniProt P22681).
T4 construct: N-terminal biotinylated WT CBL-B (36-427) and C-CBL (46-435) were captured on a streptavidin (SA) coated sensor chip
T4 sequence (P22681 46-435): T2 sequence (P22681 46-435)
The experiment in a line: Surface Plasmon Resonance (SPR) assay, binding affinity and kinetics, C-CBL. The conditions noted are these: SPR at 10° C., biotinylated C-CBL (46-435) on streptavidin chip; geometric mean; read-out: C-CBL SPR Kd (nM) GMean. As for the experimental part: as §4, §5, §6, §7, §8

Turning to `CC(N[C@@H]1CCOC1)c1nc(C(F)(F)F)cc2c(-c3cccc(C4(Cc5nncn5C)COC4)c3)n[nH]c12` (single isomer, unassigned) [Example C86], the Ki in assay [1] was 9 nM; in assay [2] it was 49.4 nM. The Kd in assay [3] was found to be 5.1 nM; in assay [4], 60.3 nM.
The corresponding values for `Cn1cnnc1CC1(c2cccc(-c3n[nH]c4c(CN5CCNCC5)nc(C(F)(F)F)cc34)c2)COC1` [Example C64, 3-(3-{3-[(4-methyl-4H-1,2,4-triazol-3-yl)methyl]oxetan-3-yl}phenyl)-7-[(piperazin-1-yl)methyl]-5-(trifluoromethyl)-1H-pyrazolo[3,4-c]pyridine] are 31.2 nM, 117 nM, 3 nM and 65.2 nM.
For `CCNCc1nc(C(F)(F)F)cc2c(-c3cccc([C@H](c4nncn4C)C4CCC4)c3)n[nH]c12` [Example D81], in that order: 25.7 nM, 191 nM, 5.6 nM and 206 nM.
The corresponding values for `CN1CC[C@H](N(C)c2nc(C(F)(F)F)cc3c(-c4cccc([C@H](c5nncn5C)C5CCC5)c4)n[nH]c23)C1` [Example J12, 3-{3-[(R)-cyclobutyl(4-methyl-4H-1,2,4-triazol-3-yl)methyl]phenyl}-N-methyl-N-[(3S)-1-methylpyrrolidin-3-yl]-5-(trifluoromethyl)-1H-pyrazolo[3,4-c]pyridin-7-amine] are 16.1 nM, 118 nM, 16.1 nM and 240 nM.
As to `Cn1cnnc1[C@@H](c1cccc(-c2n[nH]c3c(CN4C[C@@H](F)[C@H](F)C4)nc(C(F)(F)F)cc23)c1)C1CCC1` [Example C111, 3-{3-[(R)-cyclobutyl(4-methyl-4H-1,2,4-triazol-3-yl)methyl]phenyl}-7-{[(3R,4R)-3,4-difluoropyrrolidin-1-yl]methyl}-5-(trifluoromethyl)-1H-pyrazolo[3,4-c]pyridine], the Ki was found to be 26.9 nM in assay [1] and 313 nM in assay [2]. The Kd was 3.3 nM in assay [3] and 282 nM in assay [4].
For `CC(N[C@H]1CCOC1)c1nc(C(F)(F)F)cc2c(-c3cccc(C4(Cc5nncn5C)COC4)c3)n[nH]c12` (single isomer, unassigned) [Example C81], in that order: 6.5 nM, 18.2 nM, 4.6 nM and 56.5 nM.
Turning to `Cn1cnnc1CC1(c2cccc(-c3n[nH]c4c(CN5C[C@@H](F)[C@H](F)C5)nc(C(F)(F)F)cc34)c2)COC1` [Example C66, 7-{[(3R,4R)-3,4-difluoropyrrolidin-1-yl]methyl}-3-(3-{3-[(4-methyl-4H-1,2,4-triazol-3-yl)methyl]oxetan-3-yl}phenyl)-5-(trifluoromethyl)-1H-pyrazolo[3,4-c]pyridine], the results for the Ki in assay [1] and in assay [2] were 20 nM and 112 nM, respectively. In addition, the values for the Kd in assay [3] and in assay [4] were 9.6 nM and 97 nM, respectively.
The corresponding values for `Cn1cnnc1[C@@H](c1cccc(-c2n[nH]c3c(CN4C[C@@H](F)[C@@H](F)C4)nc(C(F)(F)F)cc23)c1)C1CCC1` [Example C107, 3-{3-[(R)-cyclobutyl(4-methyl-4H-1,2,4-triazol-3-yl)methyl]phenyl}-7-{[(3R,4S)-3,4-difluoropyrrolidin-1-yl]methyl}-5-(trifluoromethyl)-1H-pyrazolo[3,4-c]pyridine] are 33.9 nM, 363 nM, 3.7 nM and 158 nM.
For `Cn1cnnc1[C@@H](c1cccc(-c2n[nH]c3c(CN4CCCC4)nc(C(F)(F)F)cc23)c1)C1CCC1` [Example D94], in that order: 29.2 nM, 192 nM, 5.5 nM and 163 nM.
For `Cn1cnnc1CC1(c2cccc(-c3n[nH]c4c(CN5CC(F)C5)nc(C(F)(F)F)cc34)c2)COC1` [Example C65, 7-[(3-fluoroazetidin-1-yl)methyl]-3-(3-{3-[(4-methyl-4H-1,2,4-triazol-3-yl)methyl]oxetan-3-yl}phenyl)-5-(trifluoromethyl)-1H-pyrazolo[3,4-c]pyridine], in that order: 21.8 nM, 126 nM, 4.9 nM and 127 nM.
As to `Cn1cnnc1CC1(c2cccc(-c3n[nH]c4c(CNC5CCCC5)nc(C(F)(F)F)cc34)c2)COC1` [Example C54, N-{[3-(3-{3-[(4-methyl-4H-1,2,4-triazol-3-yl)methyl]oxetan-3-yl}phenyl)-5-(trifluoromethyl)-1H-pyrazolo[3,4-c]pyridin-7-yl]methyl}cyclopentanamine], the Ki in assay [1] came out at 10.7 nM; in assay [2], 49.4 nM. The Kd is 4.5 nM in assay [3] and 93.2 nM in assay [4].
On to `CC[C@@H](c1cccc(-c2n[nH]c3c([C@@H](C)NC[C@H](C)O)nc(C(F)(F)F)cc23)c1)c1nncn1C` (single isomer, unassigned) [Example D79], for which the figures for the Ki in assay [1] and in assay [2] were 296 nM and 1160 nM, respectively.
Take `Cn1cnnc1[C@@H](c1cccc(-c2n[nH]c3c(C4CCCN4)nc(C(F)(F)F)cc23)c1)C1CCC1` (single isomer, unassigned) [Example L3]: the Ki in assay [1] is 20.1 nM; in assay [2] it was 159 nM.
The corresponding values for `CC(O)c1nc(C2CC2)cc2c(-c3cccc(C4(Cc5nncn5C)COC4)c3)n[nH]c12` (single isomer, unassigned) [Example H5, (1ξ)-1-[5-cyclopropyl-3-(3-{3-[(4-methyl-4H-1,2,4-triazol-3-yl)methyl]oxetan-3-yl}phenyl)-1H-pyrazolo[3,4-c]pyridin-7-yl]ethan-1-ol] are 28.5 nM and 93.6 nM.
On to `CC(NC(=O)[C@@H](C)O)c1nc(C(F)(F)F)cc2c(-c3cccc([C@H](c4nncn4C)C4CCC4)c3)n[nH]c12` (single isomer, unassigned) [Example I6], for which the Ki in assay [1] was found to be 7.8 nM; in assay [2], 84.3 nM.
Turning to `CC(NC[C@H](C)O)c1nccc2c(-c3cccc([C@H](c4nncn4C)C4CCC4)c3)n[nH]c12` (single isomer, unassigned) [Example C125], the Ki in assay [1] was determined as 12.2 nM; in assay [2] it was 147 nM.

As usually defined, the Ki is the dissociation constant of the complex between target and ligand, obtained from inhibition or displacement. Usually Kd stands for the equilibrium constant for the complex coming apart.
